According to US9695155B2, “Herbicidal substituted pyrimidinyloxy benzene compounds” (E. I. DU PONT DE NEMOURS AND COMPANY, priority 2013, dated 2017):

Assays:
pigweed = test: Test C postemergence; format: in vivo, Amaranthus retroflexus; settings: for Plant response rating (0 to 100), Pigweed: 16 g ai/ha, 0 is no effect, 100 is complete control; for Pigweed plant response rating: 31 g ai/ha; for Pigweed plant response rating / Plant response rating, Pigweed: scale 0 to 100 (0 no effect, 100 complete control)
Summary of the method: (§1)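 Preemergence: seeds sown in a loam soil–sand blend and sprayed with test chemical in a non-phytotoxic solvent mixture containing surfactant. Postemergence: plants at 2 to 18 cm (1- to 4-leaf stage) in peat-based medium, treated with the same formulation. Greenhouse 13 to 15 days, then visual rating 0 (no effect) to 100 (complete control).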

morningglory [1] = test: Test A preemergence; format: in vivo, Ipomoea spp.; settings: for Morningglory plant response rating (0 to 100 scale): 125 g ai/ha; for Morningglory plant response rating: 500 g ai/ha, 0 to 100 scale where 0 is no effect and 100 is complete control
Summary of the method: (§2)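 Injury scores run from 0, no effect, to 100, complete control, judged by eye against untreated plants roughly 10 days after treatment. Chemicals carried a surfactant in a non-phytotoxic solvent and went onto loam–sand soil preemergence or onto one- to two-leaf seedlings postemergence.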

wild oat = test: Test C postemergence; format: in vivo, Avena fatua; settings: for Plant response rating (0 to 100), Oat, Wild: 16 g ai/ha, 0 is no effect, 100 is complete control; for Oat, Wild plant response rating: 31 g ai/ha; for Oat, Wild plant response rating / Plant response rating, Oat, Wild: scale 0 to 100 (0 no effect, 100 complete control)
Summary of the method: as §1

yellow nutsedge = test: Test C postemergence; format: in vivo, Cyperus esculentus; settings: for Plant response rating (0 to 100), Nutsedge, Yellow: 16 g ai/ha, 0 is no effect, 100 is complete control; for Nutsedge, Yellow plant response rating: 31 g ai/ha; for Nutsedge, Yellow plant response rating / Plant response rating, Nutsedge, Yellow: scale 0 to 100 (0 no effect, 100 complete control)
Summary of the method: as §1

morningglory [2] = test: Test C postemergence; format: in vivo, Ipomoea coccinea; settings: for Plant response rating (0 to 100), Morningglory: 16 g ai/ha, 0 is no effect, 100 is complete control; for Morningglory plant response rating: 31 g ai/ha; for Morningglory plant response rating / Plant response rating, Morningglory: scale 0 to 100 (0 no effect, 100 complete control)
Summary of the method: as §1

kochia = test: Test C postemergence; format: in vivo, Kochia scoparia; settings: for Plant response rating (0 to 100), Kochia: 16 g ai/ha, 0 is no effect, 100 is complete control; for Kochia plant response rating: 31 g ai/ha; for Kochia plant response rating / Plant response rating, Kochia: scale 0 to 100 (0 no effect, 100 complete control)
Summary of the method: as §1

Italian ryegrass = test: Test C postemergence; format: in vivo, Lolium multiflorum; settings: for Plant response rating (0 to 100), Ryegrass, Italian: 16 g ai/ha, 0 is no effect, 100 is complete control; for Ryegrass, Italian plant response rating: 31 g ai/ha; for Ryegrass, Italian plant response rating / Plant response rating, Ryegrass, Italian: scale 0 to 100 (0 no effect, 100 complete control)
Summary of the method: as §1

giant foxtail [3] = test: Test A preemergence; format: in vivo, Setaria faberii; settings: for Foxtail, Giant plant response rating (0 to 100 scale): 125 g ai/ha; for Foxtail, Giant plant response rating: 500 g ai/ha, 0 to 100 scale where 0 is no effect and 100 is complete control
Summary of the method: as §2

large (Lg) crabgrass [4] = test: Test A preemergence; format: in vivo, Digitaria sanguinalis; settings: for Crabgrass, Large plant response rating (0 to 100 scale): 125 g ai/ha; for Crabgrass, Large plant response rating: 500 g ai/ha, 0 to 100 scale where 0 is no effect and 100 is complete control
Summary of the method: as §2

velvetleaf = test: Test A postemergence; format: in vivo, Abutilon theophrasti; settings: 0 to 100 scale where 0 is no effect and 100 is complete control; for Velvetleaf plant response rating: 125 g ai/ha; for Plant response rating, Velvetleaf: 500 g ai/ha
Summary of the method: as §2

large (Lg) crabgrass [5] = test: Test A postemergence; format: in vivo, Digitaria sanguinalis; settings: 0 to 100 scale where 0 is no effect and 100 is complete control; for Crabgrass, Large plant response rating: 125 g ai/ha; for Plant response rating, Crabgrass, Large: 500 g ai/ha
Summary of the method: as §2

rice = test: Test B flooded paddy test; format: in vivo, Oryza sativa; settings: Flood, 250 g ai/ha; 0 to 100 scale where 0 is no effect and 100 is complete control
Summary of the method: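 Plants were grown to the 2-leaf stage, then pots were flooded to 3 cm above the soil and compounds were applied directly into the paddy water. That depth was held throughout, and after 13 to 15 days in the greenhouse injury was rated visually against controls on a 0–100 scale (0 no effect, 100 complete control).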

giant foxtail [6] = test: Test A postemergence; format: in vivo, Setaria faberii; settings: 0 to 100 scale where 0 is no effect and 100 is complete control; for Foxtail, Giant plant response rating: 125 g ai/ha; for Plant response rating, Foxtail, Giant: 500 g ai/ha
Summary of the method: as §2

corn = test: Test A postemergence; format: in vivo, Zea mays; settings: 0 to 100 scale where 0 is no effect and 100 is complete control; for Corn plant response rating: 125 g ai/ha; for Plant response rating, Corn: 500 g ai/ha
Summary of the method: as §2

wheat = test: Test A preemergence; format: in vivo, Triticum aestivum; settings: for Wheat plant response rating (0 to 100 scale): 125 g ai/ha; for Wheat plant response rating: 500 g ai/ha, 0 to 100 scale where 0 is no effect and 100 is complete control
Summary of the method: as §2

[7] = postemergence, visual rating, 13 to 15 days
[8] = 125 g ai/ha, postemergence, visual rating
[9] = Postemergence, 62 g ai/ha, 13 to 15 days

Fc1cnc(Oc2ccccc2-n2cc(C(F)F)cn2)nc1 [Compound 228]
Plant response rating (0 to 100), Pigweed (pigweed; postemergence): 25
Pigweed plant response rating (pigweed; [7]): 50
Plant response rating, Pigweed (pigweed; [8]): 55
Plant response rating, Pigweed (pigweed; [9]): 60
Morningglory plant response rating (0 to 100 scale) (morningglory [1]): 10
Morningglory plant response rating (morningglory [1]): 80
Plant response rating (0 to 100), Oat, Wild (wild oat; postemergence): 0
Oat, Wild plant response rating (wild oat; [7]): 0
Plant response rating, Oat, Wild (wild oat; [8]): 5
Plant response rating, Oat, Wild (wild oat; [9]): 0
Plant response rating (0 to 100), Nutsedge, Yellow (yellow nutsedge; postemergence): 0
Nutsedge, Yellow plant response rating (yellow nutsedge; [7]): 0
Plant response rating, Nutsedge, Yellow (yellow nutsedge; [8]): 5
Plant response rating, Nutsedge, Yellow (yellow nutsedge; [9]): 5
Plant response rating (0 to 100), Morningglory (morningglory [2]; postemergence): 5
Morningglory plant response rating (morningglory [2]; [7]): 10
Plant response rating, Morningglory (morningglory [2]; [8]): 35
Plant response rating, Morningglory (morningglory [2]; [9]): 25
Plant response rating (0 to 100), Kochia (kochia; postemergence): 30
Kochia plant response rating (kochia; [7]): 60
Plant response rating, Kochia (kochia; [8]): 85
Plant response rating, Kochia (kochia; [9]): 80
Plant response rating (0 to 100), Ryegrass, Italian (Italian ryegrass; postemergence): 0
Ryegrass, Italian plant response rating (Italian ryegrass; [7]): 0
Plant response rating, Ryegrass, Italian (Italian ryegrass; [8]): 10
Plant response rating, Ryegrass, Italian (Italian ryegrass; [9]): 0
Foxtail, Giant plant response rating (0 to 100 scale) (giant foxtail [3]): 90
Foxtail, Giant plant response rating (giant foxtail [3]): 100
Crabgrass, Large plant response rating (0 to 100 scale) (large (Lg) crabgrass [4]): 90
Crabgrass, Large plant response rating (large (Lg) crabgrass [4]): 100
Velvetleaf plant response rating (velvetleaf): 100
Plant response rating, Velvetleaf (velvetleaf): 100
Crabgrass, Large plant response rating (large (Lg) crabgrass [5]): 40
Plant response rating, Crabgrass, Large (large (Lg) crabgrass [5]): 90
Plant response rating, Rice (rice): 0
Foxtail, Giant plant response rating (giant foxtail [6]): 50
Plant response rating, Foxtail, Giant (giant foxtail [6]): 90
Corn plant response rating (corn): 50
Plant response rating, Corn (corn): 10
Wheat plant response rating (0 to 100 scale) (wheat): 0
Wheat plant response rating (wheat): 0

FC(F)c1cnn(-c2c(Cl)cccc2Oc2ncc(Cl)cn2)c1 [Compound 192]
Plant response rating (0 to 100), Pigweed (pigweed; postemergence): 60
Pigweed plant response rating (pigweed; [7]): 65
Plant response rating, Pigweed (pigweed; [8]): 70
Plant response rating, Pigweed (pigweed; [9]): 80
Morningglory plant response rating (0 to 100 scale) (morningglory [1]): 30
Morningglory plant response rating (morningglory [1]): 100
Plant response rating (0 to 100), Oat, Wild (wild oat; postemergence): 0
Oat, Wild plant response rating (wild oat; [7]): 0
Plant response rating, Oat, Wild (wild oat; [8]): 5
Plant response rating, Oat, Wild (wild oat; [9]): 5
Plant response rating (0 to 100), Nutsedge, Yellow (yellow nutsedge; postemergence): 5
Nutsedge, Yellow plant response rating (yellow nutsedge; [7]): 5
Plant response rating, Nutsedge, Yellow (yellow nutsedge; [8]): 40
Plant response rating, Nutsedge, Yellow (yellow nutsedge; [9]): 0
Plant response rating (0 to 100), Morningglory (morningglory [2]; postemergence): 30
Morningglory plant response rating (morningglory [2]; [7]): 50
Plant response rating, Morningglory (morningglory [2]; [8]): 35
Plant response rating, Morningglory (morningglory [2]; [9]): 35
Plant response rating (0 to 100), Kochia (kochia; postemergence): 30
Kochia plant response rating (kochia; [7]): 45
Plant response rating, Kochia (kochia; [8]): 90
Plant response rating, Kochia (kochia; [9]): 85
Plant response rating (0 to 100), Ryegrass, Italian (Italian ryegrass; postemergence): 0
Ryegrass, Italian plant response rating (Italian ryegrass; [7]): 0
Plant response rating, Ryegrass, Italian (Italian ryegrass; [8]): 5
Plant response rating, Ryegrass, Italian (Italian ryegrass; [9]): 5
Foxtail, Giant plant response rating (0 to 100 scale) (giant foxtail [3]): 100
Foxtail, Giant plant response rating (giant foxtail [3]): 100
Crabgrass, Large plant response rating (0 to 100 scale) (large (Lg) crabgrass [4]): 100
Crabgrass, Large plant response rating (large (Lg) crabgrass [4]): 100
Velvetleaf plant response rating (velvetleaf): 90
Plant response rating, Velvetleaf (velvetleaf): 100
Crabgrass, Large plant response rating (large (Lg) crabgrass [5]): 50
Plant response rating, Crabgrass, Large (large (Lg) crabgrass [5]): 90
Plant response rating, Rice (rice): 0
Foxtail, Giant plant response rating (giant foxtail [6]): 70
Plant response rating, Foxtail, Giant (giant foxtail [6]): 90
Corn plant response rating (corn): 10
Plant response rating, Corn (corn): 60
Wheat plant response rating (0 to 100 scale) (wheat): 0

FC(F)(F)c1cnn(-c2c(Br)cccc2Oc2ncc(Cl)cn2)c1 [Compound 191]
Plant response rating (0 to 100), Pigweed (pigweed; postemergence): 95
Pigweed plant response rating (pigweed; [7]): 85
Plant response rating, Pigweed (pigweed; [8]): 98
Plant response rating, Pigweed (pigweed; Postemergence, 62 g ai/ha): 95
Morningglory plant response rating (0 to 100 scale) (morningglory [1]): 50
Morningglory plant response rating (morningglory [1]): 70
Plant response rating (0 to 100), Oat, Wild (wild oat; postemergence): 5
Oat, Wild plant response rating (wild oat; [7]): 5
Plant response rating, Oat, Wild (wild oat; [8]): 10
Plant response rating, Oat, Wild (wild oat; Postemergence, 62 g ai/ha): 5
Plant response rating (0 to 100), Nutsedge, Yellow (yellow nutsedge; postemergence): 0
Nutsedge, Yellow plant response rating (yellow nutsedge; [7]): 0
Plant response rating, Nutsedge, Yellow (yellow nutsedge; [8]): 5
Plant response rating, Nutsedge, Yellow (yellow nutsedge; Postemergence, 62 g ai/ha): 5
Plant response rating (0 to 100), Morningglory (morningglory [2]; postemergence): 40
Morningglory plant response rating (morningglory [2]; [7]): 85
Plant response rating, Morningglory (morningglory [2]; [8]): 50
Plant response rating, Morningglory (morningglory [2]; Postemergence, 62 g ai/ha): 85
Plant response rating (0 to 100), Kochia (kochia; postemergence): 85
Kochia plant response rating (kochia; [7]): 95
Plant response rating, Kochia (kochia; [8]): 100
Plant response rating, Kochia (kochia; Postemergence, 62 g ai/ha): 98
Plant response rating (0 to 100), Ryegrass, Italian (Italian ryegrass; postemergence): 0
Ryegrass, Italian plant response rating (Italian ryegrass; [7]): 0
Plant response rating, Ryegrass, Italian (Italian ryegrass; [8]): 5
Plant response rating, Ryegrass, Italian (Italian ryegrass; Postemergence, 62 g ai/ha): 5
Foxtail, Giant plant response rating (0 to 100 scale) (giant foxtail [3]): 100
Foxtail, Giant plant response rating (giant foxtail [3]): 100
Crabgrass, Large plant response rating (0 to 100 scale) (large (Lg) crabgrass [4]): 100
Crabgrass, Large plant response rating (large (Lg) crabgrass [4]): 100
Velvetleaf plant response rating (velvetleaf): 90
Plant response rating, Velvetleaf (velvetleaf): 100
Crabgrass, Large plant response rating (large (Lg) crabgrass [5]): 50
Plant response rating, Crabgrass, Large (large (Lg) crabgrass [5]): 90
Plant response rating, Rice (rice): 0
Foxtail, Giant plant response rating (giant foxtail [6]): 50
Plant response rating, Foxtail, Giant (giant foxtail [6]): 90
Corn plant response rating (corn): 20
Plant response rating, Corn (corn): 40
Wheat plant response rating (0 to 100 scale) (wheat): 20
Wheat plant response rating (wheat): 40
